In PubChem BioAssay (NCI):
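Assay format: 96-well plates, 48-hour exposure. GI50 = concentration required for 50% inhibition of growth. At the TGI there is no net growth.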

Tests used:
Experiment in all cases: NCI tumour cell line growth inhibition, 48 h
HOP-62 NSCLC = tested on: HOP-62 NSCLC
RPMI-8226 leukemia = tested on: RPMI-8226 leukemia
UO-31 renal = tested on: UO-31 renal
SN12C renal = tested on: SN12C renal
SK-MEL-2 melanoma = tested on: SK-MEL-2 melanoma
LOX IMVI melanoma = tested on: LOX IMVI melanoma
KM12 colon = tested on: KM12 colon
SK-OV-3 ovarian = tested on: SK-OV-3 ovarian
SR leukemia = tested on: SR leukemia
CAKI-1 renal = tested on: CAKI-1 renal
PC-3 prostate = tested on: PC-3 prostate

Row | SMILES | TGI (HOP-62 NSCLC) | TGI (RPMI-8226 leukemia) | TGI (UO-31 renal) | TGI (SN12C renal) | TGI (SK-MEL-2 melanoma) | TGI (LOX IMVI melanoma) | TGI (KM12 colon) | TGI (SK-OV-3 ovarian) | TGI (SR leukemia) | TGI (CAKI-1 renal) | TGI (PC-3 prostate) | GI50 (RPMI-8226 leukemia) | GI50 (UO-31 renal) | GI50 (SR leukemia) | GI50 (CAKI-1 renal)
1 | Cc1ccc(O)c(C2=NNC(c3cccc(Cl)c3)C2)c1 (centres undefined) | > 100 µM | 88.3 µM | > 100 µM | > 100 µM | 94.1 µM | > 100 µM | > 100 µM | > 100 µM | > 100 µM | > 100 µM | > 100 µM | – | – | – | –
2 | Nc1ncc2c(n1)-c1ccccc1OC2N1CCOCC1 (centres undefined) | > 100 µM | > 100 µM | > 100 µM | > 100 µM | > 100 µM | > 100 µM | > 100 µM | > 100 µM | > 100 µM | > 100 µM | > 100 µM | – | – | – | –
3 | Cc1nn(C(=O)c2ccc(Cl)cc2)c2c1C(c1ccc(Cl)cc1)SC(N)=N2 (centres undefined) | > 10 µM | > 10 µM | – | > 10 µM | > 10 µM | > 10 µM | > 10 µM | > 10 µM | > 10 µM | > 10 µM | > 10 µM | – | – | – | –
4 | C=CCN1C(=O)CS/C1=N\NC(=O)CSc1nc2ccccc2c(=O)n1CC | > 100 µM | > 100 µM | > 100 µM | > 100 µM | > 100 µM | > 100 µM | > 100 µM | > 100 µM | > 100 µM | > 100 µM | > 100 µM | – | – | – | –
5 | CC(C)CC1NC(=O)CCC(NC(=O)C(Cc2ccc(O)cc2)NC(=O)OCc2ccccc2)C(=O)NC(Cc2ccccc2)C(=O)NC(Cc2ccccc2)NC1=O (centres undefined) | > 100 µM | > 100 µM | > 100 µM | > 100 µM | > 100 µM | > 100 µM | > 100 µM | > 100 µM | > 100 µM | > 100 µM | > 100 µM | – | – | – | –
6 | Cc1ccc(O)c(C(c2cc(C)ccc2O)c2cc([N+](=O)[O-])ccc2O)c1 | 26.3 µM | 50.6 µM | 21.5 µM | 28.3 µM | 28.2 µM | > 100 µM | 21.2 µM | 37 µM | 39.1 µM | 24.8 µM | 21.3 µM | – | – | – | –
7 | O=C(O)CCC(NC(=O)c1ccc(Oc2nc3ccccc3nc2-c2ccccc2)cc1)C(=O)O (centres undefined) | > 100 µM | – | > 100 µM | > 100 µM | > 100 µM | > 100 µM | > 100 µM | > 100 µM | > 100 µM | > 100 µM | > 100 µM | – | – | – | –
8 | c1cc2c3ccsc3c3sccc3c2s1 | 70.5 µM | > 100 µM | > 100 µM | > 100 µM | > 100 µM | > 100 µM | > 100 µM | > 100 µM | > 100 µM | > 100 µM | > 100 µM | – | – | – | –
9 | N#CC(C#N)=Cn1c(=S)[nH]c2ccc([N+](=O)[O-])cc21 | > 100 µM | > 100 µM | > 100 µM | > 100 µM | > 100 µM | > 100 µM | > 100 µM | > 100 µM | > 100 µM | > 100 µM | > 100 µM | – | – | – | –
10 | NC(=O)NC(=O)c1cccc(NC(=O)CCl)c1 | 4.71 µM | 13.6 µM | 0.452 µM | 4.8 µM | 15.1 µM | 2.17 µM | 2.43 µM | 8.88 µM | 3.92 µM | 6 µM | 11.6 µM | – | – | – | –
11 | CC12CCC(=O)[C@@]1(C)CCCC2O (some centres undefined) | > 100 µM | > 100 µM | > 100 µM | > 100 µM | > 100 µM | > 100 µM | > 100 µM | > 100 µM | > 100 µM | > 100 µM | > 100 µM | – | – | – | –
12 | O=Cc1ccc(-c2ccc(S(=O)(=O)O)cc2)o1 | – | > 100 µM | > 100 µM | > 100 µM | > 100 µM | > 100 µM | > 100 µM | > 100 µM | > 100 µM | > 100 µM | > 100 µM | – | – | – | –
13 | CCOC(=O)c1nc2cc(F)cc(F)c2[nH]c1=O | > 100 µM | > 100 µM | > 100 µM | > 100 µM | > 100 µM | > 100 µM | > 100 µM | > 100 µM | > 100 µM | > 100 µM | > 100 µM | – | – | – | –
14 | CCOC(=O)c1csc(-c2cn(C)c3c2C(=O)C(OC)=CC3=O)n1 | 74 µM | > 80.1 µM | > 100 µM | > 100 µM | > 78 µM | > 100 µM | > 71.8 µM | > 100 µM | > 100 µM | > 100 µM | > 100 µM | – | – | – | –
15 | Oc1cccc2ccc(Br)nc12 | > 100 µM | > 100 µM | > 100 µM | > 100 µM | – | > 100 µM | > 100 µM | > 100 µM | > 100 µM | > 100 µM | > 100 µM | – | – | – | –
16 | COc1ccc2[nH]c3c(O)c(-c4c(C)cc5c([nH]c6ccc(OC)cc65)c4O)c(C)cc3c2c1 | 8.35 µM | 7.45 µM | 7.12 µM | 8.17 µM | 10.7 µM | 8.06 µM | 7.74 µM | – | 8.34 µM | 8.39 µM | 7.69 µM | 3.61 µM | 3.78 µM | 3.97 µM | 4.27 µM
17 | C1=Cc2cccc3occ(c23)C=C1 | > 100 µM | – | > 100 µM | > 100 µM | > 100 µM | 33.8 µM | > 100 µM | > 100 µM | 43 µM | > 100 µM | > 100 µM | – | – | – | –
18 | O=c1[nH]c(=O)n(C2CC(O)C(COP(=O)(OCC(Cl)(Cl)Cl)OCC(Cl)(Cl)Cl)O2)cc1F (centres undefined) | 1.53 µM | > 100 µM | > 100 µM | > 100 µM | > 100 µM | > 100 µM | > 100 µM | > 100 µM | > 100 µM | > 100 µM | > 100 µM | – | – | – | –
19 | CC(=O)OC(C)c1cc2c(s1)C(=O)c1ccsc1C2=O (centres undefined) | 0.281 µM | 0.486 µM | 0.354 µM | 0.355 µM | 0.927 µM | 0.119 µM | 0.306 µM | 3.7 µM | 0.365 µM | 2.39 µM | 0.201 µM | – | – | – | –
20 | CCOC(=O)CCc1ccc(NC(=O)/C=C/c2ccc([N+](=O)[O-])o2)cc1 | 11 µM | – | 3.08 µM | 4.26 µM | 4.82 µM | 1.54 µM | 4.43 µM | > 100 µM | 0.475 µM | 6.54 µM | > 29.9 µM | – | – | – | –
21 | C[C@]12CC[C@H](O)CC1=CC[C@@H]1[C@@H]2CC[C@]2(C)NC(=O)/C(=C\c3ccccc3)C[C@@H]12 | 29 µM | 56 µM | 25.8 µM | 66 µM | 31.8 µM | 42.5 µM | 30.3 µM | 35.5 µM | > 100 µM | 73.1 µM | 29.5 µM | – | – | – | –
22 | Cc1ccc(CN2CCN(Cc3ccc(C)o3)C(C)C2)o1 (centres undefined) | > 100 µM | > 100 µM | > 100 µM | > 100 µM | > 100 µM | > 100 µM | > 100 µM | > 100 µM | > 100 µM | > 100 µM | > 100 µM | – | – | – | –
23 | COC(=O)C1=COC2OC3CC1C2C(C)O3 (centres undefined) | > 100 µM | > 100 µM | > 100 µM | > 100 µM | > 100 µM | > 100 µM | > 100 µM | > 100 µM | > 100 µM | > 100 µM | > 100 µM | – | – | – | –
24 | Cc1cc(S(=O)(=O)NC2=NCC(C)(C)CN2)c(S)cc1Cl | > 100 µM | – | 99.8 µM | > 100 µM | > 100 µM | 31.2 µM | > 100 µM | > 100 µM | > 100 µM | > 100 µM | > 100 µM | – | – | – | –
25 | COC(=O)[C@H](C)N(C)C(=O)[C@H](C)N1[C@@H](c2ccccc2)COC1(C)C | > 100 µM | > 100 µM | > 100 µM | – | > 100 µM | > 100 µM | > 100 µM | > 100 µM | > 100 µM | > 100 µM | > 100 µM | – | – | – | –
26 | CCN1C/C(=C\c2ccc(Cl)cc2)c2[nH]c(=O)c(C#N)c(-c3ccc(Cl)cc3)c2C1 | > 100 µM | > 100 µM | – | > 100 µM | > 100 µM | > 100 µM | > 100 µM | > 100 µM | > 100 µM | – | > 100 µM | – | – | – | –
27 | N#Cc1c(N)c2c(c(-c3ccccc3)c1-c1ccccc1)C(=O)N(O)C2=O | – | > 100 µM | > 100 µM | > 100 µM | > 100 µM | > 100 µM | 83.5 µM | – | > 100 µM | > 100 µM | 48.1 µM | – | – | – | –
28 | N[C@H]1CCN(c2c(F)cc3c(=O)c(C(=O)O)cn4c3c2Oc2c-4ccc3c2ccc2ccccc23)C1 | > 100 µM | 4.11 µM | > 71.3 µM | > 100 µM | > 100 µM | 22.9 µM | > 62.7 µM | – | > 100 µM | > 25.5 µM | > 47.3 µM | – | – | 0.283 µM | –
29 | COc1cccc(CCn2c(N)c(C#N)c3ccc([N+](=O)[O-])cc3c2=O)c1 | > 31.6 µM | – | > 46.4 µM | > 100 µM | > 46.4 µM | > 46.4 µM | > 31.6 µM | > 31.6 µM | 0.922 µM | > 46.4 µM | > 46.4 µM | – | – | – | –
30 | COc1cc(C(=O)OC2CC34CCNC35CC(OC5(OC)C2O)c2cc3c(cc24)OCO3)ccc1O (centres undefined) | > 100 µM | > 100 µM | – | > 100 µM | > 100 µM | > 100 µM | > 100 µM | > 100 µM | > 100 µM | > 100 µM | > 100 µM | – | – | – | –
